Measured values as given in patent publication US20240011034A1, “INHIBITION OF miR-29b-3p TO ENHANCE NEURONAL SURVIVAL IN HUNTINGTON'S DISEASE” (Washington University, priority 2022, published 2024).

Tests used:
[1] = system: α1-antitrypsin Z variant (ATZ); assay: Immunoblot of steady-state ATZ in HTO/Z cell line model of α1-antitrypsin deficiency; format: cell-based; conditions: 24 hr, 0.5 and 2.5 μM vs DMSO (0.5 μM: p=0.003)
Protocol: FIG. 7A-7H show autophagy activator rescues HD-MSNs from degeneration. […] The normalized intensity (bottom) was calculated from immunoblot images for 0.5 μM versus DMSO control (Individual data plotted, n=4; *p=0.003 by t-test; Mean±s.e.m.). FIG. 7C show representative images of p62 and TUBB3-positive cells (top) and quantification of p62 intensity per cell (bottom) at PID26 from multiple healthy control old and HD-MSNs treated with DMSO or 0.5 μM G2-115. Each dot represents one individual's reprogrammed MSN. Scale bars is 20 μm FIG. 7D show representative images of CYTO-ID staining (top) and quantification of CYTO-ID green signals (bottom) at PID26 from multiple healthy control old and HD-MSNs treated with DMSO or 0.5 μM G2-115. Each dot represents one individual's reprogrammed MSN. Scale bar is 20 μm FIG. 7E show representative images (top) and quantification (bottom) of SYTOX-positive cells as a fraction of Hoechst-positive cells in HD-MSN treated with DMSO or different concentration of G2-115 (0.125, 0.25, or 0.5 μM) (n=4). Scale bar is 20 μm. FIG. 7F show quantification of SYTOX-positive cells from multiple healthy control old and HD-MSNs treated with DMSO or 0.5 μM G2-115. […] FIG. 7G show Representative images (left) and quantification (right) of caspase3/7 activation (green) and Annexin V signal (green) from three independent HD-MSN lines treated with DMSO or 0.5 μM G2-115. […]

reprogrammed MSNs [2] = assay: Apoptosis assay in live cells (Caspase-3/7, Annexin V); format: cell-based, human; conditions: HD-MSNs, vs DMSO
Protocol: Reprogrammed cells grown in 96-well plates were treated with 1× Essen Bioscience IncuCyte® Caspase-3/7 Green Reagent (final concentration 5 μM) and 1× Essen Bioscience IncuCyte® Annexin V Green or Red Reagent on day 22 or 26. Image scheduling, collection, and analysis were conducted with the IncuCyte® S3 LiveCell Analysis System platform and IncuCyte S3 v2017A software. Treated plates were imaged every two hours for 7 days. At each timepoint, over 2 images were taken per well in brightfield, FITC, and TRITC channels. Images were analyzed for the number of green or red objects per well. For the apoptotic index, the number of green or red objects (i.n., fluorescence cells) divided by phase area (μm2) per well was quantified by the IncuCyte® S3 Live-Cell Analysis System.

reprogrammed MSNs [3] = assay: tandem mCherry-GFP-LC3 reporter puncta quantification; format: cell-based, human; conditions: HD-MSNs, 0.5 μM vs DMSO
Protocol: FUW mCherry-GFP-LC3 used was Addgene plasm id # 110060; http://n2t.net/addgene:110060; RRID:Addgene_110060. The concentrated lentivirus of mCherry-GFP-LC3 was added to reprogrammed MSNs at PID20. For imaging of cells expressing mCherry-GFP-LC3, cells were washed once with PBS, fixed and stained by TUBB3 antibody, after verification of expression of GFP and mCherry by microscopy at PID26. Images were captured using a Leica SP5X white light laser confocal system with Leica Application Suite (LAS) Advanced Fluorescence 2.7.3.9723. For quantification of autophagosome (i.e., mCherry+, GFP+ puncta) and autolysosome (i.e., mCherry+, GFP− puncta) compartments in MSNs from multiple HD patients and control individuals, measurements were performed in cells having at least 3 puncta per cell.

p62/SQSTM1 = p62/SQSTM1 immunostaining and immunoblot; format: cell-based, human; conditions: 0.5 μM vs DMSO, PID26
Protocol: (§1) Reprogrammed cells were fixed with 4% paraformaldehyde (Electron Microscopy Sciences, #15710) for 20 min at room temperature (RT), and permeabilized with 0.2% Triton X-100 for 10 min at RT. Cells were blocked with 5% BSA and 1% goat serum in PBS and incubated with primary antibodies at 4° C. overnight, then incubated with secondary antibodies for 1 hr at RT. Cells were incubated with DAPI (Sigma, D-9542) for 5 minutes followed by washing with PBS. Images were captured using a Leica SP5X white light laser confocal system with Leica Application Suite (LAS) Advanced Fluorescence 2.7.3.9723.
Cells were lysed in 2% SDS buffer. The concentrations of whole-cell lysates were measured using the Pierce BCA protein assay kit (Thermo Scientific, #23227). […]
First, tandem monomeric mCherry-GFP-tagged LC3, previously shown to distinguish prefusion autophagic compartments from mature acidic autolysosomes based on the differential pH sensitivity of GFP versus mCherry, was used. […] CYTO-ID assay, a fluorescence-based live-cell assay for accumulated autophagic vacuoles, and immunostaining of p62/SQSTM1, a marker widely used to monitor autophagic activity due to its binding to LC3 and degradation during autophagy, were further performed. […]

reprogrammed MSNs [4] = assay: SYTOX assay (neuronal cell death); format: cell-based, human; conditions: for SYTOX-positive cells (beneficial effect): 0.5 μM vs DMSO
Protocol: 0.1 μM SYTOX gene nucleic acid stain (Invitrogen, S7020) and 1 μl/mL of Hoechst 33342 (Thermo Scientific, 66249) were added into cell medium. Samples were incubated for at least 30 mins at 37° C. prior to live-cell imaging. Images were taken using Leica DMI 4000B inverted microscope with Leica Application Suite (LAS) Advanced Fluorescence.

reprogrammed MSNs [5] = assay: CYTO-ID assay for accumulated autophagic vacuoles; format: cell-based, human; conditions: 0.5 μM vs DMSO, PID26
Description: First, tandem monomeric mCherry-GFP-tagged LC3, previously shown to distinguish prefusion autophagic compartments from mature acidic autolysosomes based on the differential pH sensitivity of GFP versus mCherry, was used. […] CYTO-ID assay, a fluorescence-based live-cell assay for accumulated autophagic vacuoles, and immunostaining of p62/SQSTM1, a marker widely used to monitor autophagic activity due to its binding to LC3 and degradation during autophagy, were further performed. […] The difference in p62 between pre-HD-MSNs and HD-MSNs was also validated by immunoblot assay (FIG. 3I). Because caspase activation has been detected in HD, and cell death-related pathways (apoptosis and caspase) were enriched in the brown module, the levels of caspase activation between pre-HD-MSN and HD-MSNs were compared.

HTT inclusion bodies = HTT inclusion bodies / mHTT aggregation by immunostaining; format: cell-based, human; conditions: HD-MSNs, 0.5 μM vs DMSO, PID30
Protocol: as §1

Structure (SMILES): O=c1ccc2c(Cl)cc(Cl)cc2[nH]1 [G2-115, 5,7-dichloro-1H-quinolin-2-one]
- steady-state levels of ATZ [1]: decreased
- Annexin V signal (reprogrammed MSNs [2]): reduced
- Caspase 3/7 signal (reprogrammed MSNs [2]): reduced
- average number of autolysosomes (reprogrammed MSNs [3]): increased
- average number of autophagosomes (reprogrammed MSNs [3]): increased
- p62/SQSTM1 signal (p62/SQSTM1; HD-MSNs): decreased
- p62/SQSTM1 signal (p62/SQSTM1; old Ctrl-MSNs): decreased
- HD-MSN survival (reduction of SYTOX signal) (reprogrammed MSNs [4]; HD-MSN, 0.125, 0.25 or 0.5 μM vs DMSO, treated from PID14 every four days for 16 days): promoted HD-MSN survival in a dose-dependent manner
- SYTOX-positive cells (beneficial effect) (reprogrammed MSNs [4]; HD-MSNs from six independent patients): consistent in HD-MSNs from six independent patients
- SYTOX-positive cells (beneficial effect) (reprogrammed MSNs [4]; age-matched (old) Ctrl-MSNs versus HD-MSNs): specific to HD-MSNs
- number of autophagic vacuoles (CYTO-ID signals) (reprogrammed MSNs [5]; HD-MSNs): increased
- number of autophagic vacuoles (CYTO-ID signals) (reprogrammed MSNs [5]; old Ctrl-MSNs): increased
- number of HTT inclusion bodies (HTT inclusion bodies): reduced
